Source: patent US20240360459A1 (Nankai University, priority 2023, published 2024)

Molecular target: Mtb ATP synthase (Mycobacterium tuberculosis, UniProt P9WPS1+P9WPV7)
Assay: biochemical
Format: binding

## COc1nc2ccc(Br)cc2cc1[C@@H](c1ccccc1)[C@@](O)(CCN(C)C)c1cccc2ccccc12 [bedaquiline]
  Kd: 36.5 µM
